Experimental data from patent publication US10765732B2, “Compounds and methods for affecting cytokines” (Zivo Bioscience, Inc., priority 2013, dated 2020).

Tests used:
Type in all cases: cell-based, human
[1] = system: IL-2; assay: ELISA of IL-2 secretion by cultured PBMC; conditions: PMA (with ionomycin) alone
Procedure: (§1) According to this exemplary embodiment, phyto-percolate and the flow-through/F4 were tested as they appeared in their original concentrations right off the columns, only diluted 1:20 and 1:100 as described herein. The culture of peripheral blood mononuclear cells (“PBMC”) is prepared from two vials of frozen PBMCs that were obtained from normal healthy human subjects by a commercial vendor, and were added to 2×10 ml medium and centrifuged. PBMCs were resuspended and cultured in RPMI1640/5% FBS for 24 h. (1 vial of frozen cells in 11 ml medium).
(§2) Treatment agents for this exemplary method comprise three agents: unseparated phyto-percolate (‘PAZ’), fraction 3 (‘F3’), fraction 4 (‘F4’). Treatment concentration for each was 1:20 and 1:100. […]
(§3) According to this exemplary embodiment, seeding, treatment, and detection are accomplished by the following steps. Two dishes of PBMCs were combined and the small amount of PBMCs was stained with 0.4% Trypan blue and the cell number of PBMCs was counted using known techniques.
(§4) In this embodiment, an enzyme linked immune-sorbent assay (“ELISA”) analysis of inflammatory cytokine secretion, (a protocol provided in a commercial kit for the parallel quantification of the production of human cytokines), was employed. […]

[2] = system: IL-17A; assay: ELISA of IL-17A secretion by cultured PBMC; conditions: PMA (with ionomycin) alone
Procedure: as §1, §2, §3, §4

[3] = system: IFN-γ; assay: ELISA of IFN-γ secretion by cultured PBMC; conditions: PMA (with ionomycin) alone
Procedure: as §1, §2, §3, §4

[4] = system: TNF-α; assay: ELISA of TNF-α secretion by cultured PBMC; conditions: PMA (with ionomycin) alone
Procedure: as §1, §2, §3, §4

[5] = system: GM-CSF; assay: ELISA of GM-CSF secretion by cultured PBMC; conditions: PMA (with ionomycin) alone
Procedure: as §1, §2, §3, §4

[6] = system: NF-κB; assay: Electrophoretic mobility shift assay (EMSA) of NF-κB DNA-binding activity in nuclear protein of cultured PBMC; conditions: TNF-α (50 ng/ml) added alone 1 h before harvesting, untreated control = 1.0
Procedure: as §1
Treatment agents for this exemplary method comprise three agents: unseparated phyto-percolate (‘PAZ’), fraction 3 (‘F3’), fraction 4 (‘F4’). Treatment concentration for each was 1:20 and 1:100. An exemplary sample preparation method for each agent by dilution is as follows: First, a 1:10 dilution is prepared by combining 0.7 ml agent (PAZ, F3, or F4)+6.3 ml RPMI1640/5% FBS to obtain a total volume of 7 ml of a 1:10 solution. […]
Analysis of the effect of phyto-percolate or fractions isolated therefrom on the DNA-binding activity of NF-κB in the nuclear protein fractions of the cultured PBMC was determined as follows in this exemplary embodiment: approximately 18.26 mL of suspended PBMC were added to approximately 18 mL of culture medium and 2 mL of this cell suspension (2,718,000 cells in 2 mL) were seeded into each 60 mm culture dish. […]

Row | Compound | quantity of IL-2 produced [1] | production and secretion of IL-17A [2] | IFN-γ secreted [3] | production and secretion of TNF-α [4] | production and secretion of GM-CSF [5] | DNA-binding activity of NF-κB (relative level) [6]
1 | CCCCCCCCCCCCCC(=O)O[C@@H]1[C@@H](C)[C@@]2(O)[C@@H](C=C(CO)C[C@]3(O)C(=O)C(C)=C[C@@H]23)[C@@H]2C(C)(C)[C@]12OC(C)=O [PMA, phorbol myristate acetate] | approximately 125 pg/100,000 cells | approximately 3 pg/100,000 cells | approximately 70 pg/100,000 cells | approximately 50 pg/100,000 cells | approximately 50 pg/100,000 cells | 
2 | TNF-α |  |  |  |  |  | ~2.0 relative unit
